Laboratory results taken from patent US11730743B2, “Protection of cells from degeneration and treatment of geographic atrophy” (University of Kentucky Research Foundation, priority 2012, dated 2023).

System: wild-type mice
Assay: Alu RNA- or pAlu-induced RPE degeneration after subretinal injection (fundus photographs, ZO-1 flat mounts)
Type: in vivo
Conditions: subretinal Alu RNA, test agent intravitreous
Method: Subretinal injection and imaging. Subretinal injections (1 μL) in mice were performed using a Pico-Injector (PLI-100, Harvard Apparatus). In vivo transfection of plasmids was achieved using 10% Neuroporter (Genlantis). Fundus imaging was performed on a TRC-50 IX camera (Topcon) linked to a digital imaging system (Sony). Immunolabeling of RPE flat mounts was performed using antibodies against human zonula occludens-1 (Invitrogen).
Fundus photography. Retinal photographs of dilated mouse eyes were taken with a TRC-50 IX camera (Topcon) linked to a digital imaging system (Sony).
Immunolabeling. Human eyes fixed in 2-4% paraformaldehyde were prepared as eyecups, cryoprotected in 30% sucrose, embedded in optimal cutting temperature compound (Tissue-Tek OCT; Sakura Finetek), and cryosectioned into 10 μm sections. Depigmentation was achieved using 0.25% potassium permanganate and 0.1% oxalic acid. Immunohistochemical staining was performed with the rabbit antibody against NLRP3 (1:100, Sigma Aldrich) or rabbit antibody against Caspase-1 (prediluted, AbCam). Isotype IgG was substituted for the primary antibody to assess the specificity of the staining. Bound antibody was detected with biotin-conjugated secondary antibodies, followed by incubation with ABC reagent and visualized by Vector Blue (Vector Laboratories). Levamisole (Vector Laboratories) was used to block endogenous alkaline phosphatase activity. Slides were washed in PBS, counterstained with neutral red (Fisher Scientific), rinsed with deionized water, air dried, and then mounted in Vectamount (Vector Laboratories). Fluorescent labeling of human tissue was performed with the rabbit antibody against PYCARD (1:50, Clone N-15, Santa Cruz Biotechnology). Immunolabeling was visualized by fluorescently conjugated anti-rabbit secondary antibody (Invitrogen). Tissue autofluorescence was quenched by incubating the sections in 0.3% Sudan black (Fisher Scientific). Sections were mounted in Vectashield with DAPI (Vector Laboratories). Mouse RPE/choroid flat mounts were fixed with 4% paraformaldehyde or 100% methanol, stained with rabbit antibodies against human zonula occludens-1 (1:100, Invitrogen) and visualized with Alexa594 (Invitrogen). All images were obtained using the Leica SP-5 or Zeiss Axio Observer Z1 microscopes.
Subretinal injection. Subretinal injections (1 μL) in mice were performed using a Pico-Injector (PLI-100, Harvard Apparatus). In vivo transfection of plasmids coding for two different Alu sequences (pAlu) or empty control vector (pNull) (Bennett et al., 2008; Kaneko et al., 2011; Shaikh et al., 1997) was achieved using 10% Neuroporter (Genlantis). AAV1-BEST1-Cre (Alexander and Hauswirth, 2008) or AAV1-BEST1-GFP were injected at […] pfu/mL and in vitro transcribed Alu RNA was injected at 0.3 mg/mL.
Drug treatments. siRNAs formulated in siRNA buffer (20 mM KCL, 0.2 mM MgCl2 in HEPES buffer at pH 7.5; Dharmacon) or phosphate buffered saline (PBS; Sigma-Aldrich); the TLR4 antagonist Ultra Pure Rhodobacter sphaeroides LPS (LPS-RS, InvivoGen), a peptide inhibitor of MyD88 homodimerization IMG-2005 (IMGENEX), control inhibitor (IMGENEX), recombinant IL-18 (Medical & Biological Laboratories), neutralizing rat antibodies against mouse IL-1β (IMGENEX), neutralizing rat antibodies against mouse IL-18 (Medical & Biological Laboratories), isotype control IgGs (R&D Systems or eBioscience as appropriate), Caspase-1 inhibitor Z-WEHD-FMK (R&D Systems), Caspase-3 inhibitor Z-DEVD-FMK (R&D Systems), Caspase control inhibitor Z-FA-FMK (R&D Systems), (2R,4R)-APDC (Enzo Life Sciences), Glipizide (Sigma-Aldrich), Glyburide (Sigma-Aldrich), and P2X7 receptor antagonist A438079 (Tocris Bioscience) were dissolved in phosphate buffered saline (PBS; Sigma-Aldrich) or dimethyl sulfoxide (DMSO; Sigma-Aldrich), and injected into the vitreous humor in a total volume of 1 μL with a 33-gauge Exmire microsyringe (Ito Corporation). […]

MyD88 inhibitory peptide: peptide inhibitor of MyD88 homodimerization IMG-2005 (IMGENEX)
Alu RNA-induced RPE degeneration: prevented
